{"source": "PubChem BioAssay AID1745864", "molecular_target": "Excitatory amino acid transporter 1 (Homo sapiens) (UniProt P43003)", "sequence (P43003 whole entry, looked up)": "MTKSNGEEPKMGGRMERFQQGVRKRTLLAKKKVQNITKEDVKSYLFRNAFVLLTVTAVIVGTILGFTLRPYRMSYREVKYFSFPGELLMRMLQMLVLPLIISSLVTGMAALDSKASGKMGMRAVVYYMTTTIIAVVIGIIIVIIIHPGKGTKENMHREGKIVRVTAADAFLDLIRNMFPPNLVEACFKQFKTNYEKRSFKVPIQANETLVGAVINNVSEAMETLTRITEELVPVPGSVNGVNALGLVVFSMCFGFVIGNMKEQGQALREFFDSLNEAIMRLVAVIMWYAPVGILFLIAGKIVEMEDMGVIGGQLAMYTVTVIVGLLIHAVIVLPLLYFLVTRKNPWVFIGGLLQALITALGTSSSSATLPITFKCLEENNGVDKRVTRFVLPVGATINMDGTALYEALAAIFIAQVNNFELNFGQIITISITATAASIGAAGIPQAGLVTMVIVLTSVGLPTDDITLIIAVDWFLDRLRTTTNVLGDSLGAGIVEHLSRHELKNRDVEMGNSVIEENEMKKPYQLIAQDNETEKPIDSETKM", "assay": "EAAT1 electrogenic uptake substrate activity – HEK293 JumpIn overexpressing cells, membrane potential dye, dose response (AID 1745864)", "details": "HEK293 JumpIn SLC1A3 OE, FLIPR membrane potential"}
{"compound": "N[C@@H](CS)C(=O)O", "values": [{"measurement": "EC50", "value": 376, "unit": "µM"}]}
